Source: PMC12320299 (Chemical Science, 2025)

Tests used:
[1] = Tissue and plasma proteome profiling of 1a-treated CT26-bearing mice; assay type: in vivo, BALB/c mice; conditions: 10 mg kg^−1, five days
From the text: On day five, tumour, liver and blood were harvested two hours after the last injection of 1a. Blood plasma and livers were harvested to obtain insight into systemic drug effects and tumours were collected to obtain information about local effects of the candidate drug.
For proteomic workup, the fresh tissue samples were quickly rinsed with PBS and shock-frozen in liquid nitrogen. Blood plasma was immediately prepared by centrifugation of the collected blood in ethylenediaminetetraacetic acid (EDTA) tubes. The samples were analysed in technical duplicates due to the expected larger heterogeneity and statistical evaluation was performed using the LIMMA algorithm[73] and gene set variation analysis (GSVA).[74] […] Statistical significance was calculated based on multi-parameter testing-adjusted P-values […].
(§1) Animals. All experiments were carried out with male Balb/c mice according to the regulation of the Ethics Committee for the Care and Use of Laboratory Animals at the Medical University Vienna (BMWF-2022-0.770.291), the guidelines from the Austrian Animal Science Association and the Federation of European Laboratory Animal Science Associations (FELASA). The animals were kept in a pathogen-free conditions, controlled environment with 12 h light–dark cycle with ad libitum access to food and water. Every procedure was done in a laminar airflow […]
(§2) Treatment. CT-26 cells ([…] in 50 μL serum-free medium) were injected subcutaneously (s.c.) into the right flank of ten– to eleven-week-old male Balb/c mice. Three days after cell injection, all compounds (dissolved in 10% DMSO in water) were administered […]
In case of the proteomic profiling […]
in water for 5 consecutive days. On the last day, 2 h after the last treatment, mice were euthanized, and blood was collected in an EDTA tube via heart punctation. Tumours and livers were harvested, quickly rinsed with PBS and snap-frozen in liquid nitrogen. Blood plasma was obtained by centrifugation (2×10 min at 900 g). […]
Sample Processing. All steps were performed on ice. The frozen tissue samples (weights ranging from 8.6– 51.5 mg) were transferred to 15 mL Falcon tubes containing 150 µL sodium deoxycholate lysis buffer (SDC; 0.4 g SDC, 500 μL Tris∙HCl (pH 8.8) in 9.5 mL H2O) and homogenized with a sonication probe (Bandelin Sonoplus HD 2070; Bandelin Electronic GmbH & Co. KG, Berlin, Germany). After sonication the homogenates were centrifuged at 10.000 g for 5 minutes and the resulting supernatant was transferred to new reaction tubes. […]
EDTA-anticoagulated plasma samples were diluted in SDC buffer at a ratio of 1 : 20, heated at 95 °C for 5 min and stored at –20 °C. The protein concentration of each sample was determined using a BCA assay. […]

[2] = Histological evaluation of liver (H&E); assay type: in vivo, BALB/c mice; conditions: 10 mg kg^−1 i.p., five consecutive days
Method: Liver tissue for histological assessment was fixed with formaldehyde and then paraffin-embedded. Haematoxylin and eosin (H&E) was used to stain tissue slices.
as §1, §2
1b/2b. Regarding anticancer activity experiments, mice were treated on 5 consecutive days over 2 weeks. Four hours after the last treatment 1a-treated mice were sacrificed and analysed for ruthenium levels in tissue via ICP-MS measurements. In case of the proteomic profiling […]
in water for 5 consecutive days. On the last day, 2 h after the last treatment, mice were euthanized, and blood was collected in an EDTA tube via heart punctation. […]

In the case of `CCC1=C2[O][Ru][O]C2(n2cccn2)c2ccccc2C1=O.Cc1ccc(C(C)C)cc1` (centres unmarked) [Compound 1a, [(3-ethyl-4-oxo-(pyrazolyl)-dihydronaphthalene)(cymene)ruthenium(II)]], the “EGFR level in tumour” value [1] is reported as “down-regulated”, the “statistically significant regulations, plasma” value ([1]; of 285 identified) is reported as 79 and the “statistically significantly regulated proteins, liver” value ([1]; of 2770 identified) is reported as 14. The “statistically significant regulations, tumour” value ([1]; of 3867 identified) was 5 and the “liver histology (H&E)” value [2] was “largely healthy physiology”.
